# Measurements published in US6849650B2, “Heterocyclic compounds, pharmaceutical compositions comprising same, and methods for inhibiting β-amyloid peptide release and/or its synthesis by use of such compounds” (Athena Neurosciences, Inc., priority 1998, dated 2005).
compound,measurement,value
"COC(=O)C1(Cc2ccccc2)CNC(C(C)NC(=O)Cc2cc(F)cc(F)c2)=N1 (stereo not shown) [Example 5, 2-[1-(3,5-difluorophenylacetamido)ethyl]-4-methoxycarbonyl-4-phenylmethyl-2-imidazoline]",melting point,158 to 160 °C
